# Values joined by “and” are separate entries in the source; they are usually repeats but may differ in a detail not shown here. Equal entries are not always repeated. Where two headings read alike, the source gives them in different places. Marks after values point to notes of the source that are not given here.
# Experiments:
# [1] = system: PARP; parameters: method as in PMID 23118055; conditions: cited from earlier work
# [2] = parameters: method as in PMID 33876576; conditions: cited from earlier work
# [3] = system: SCLC PDX models; parameters: method as in PMID 29330466; conditions: imaging, cited from earlier work
# [4] = system: PARP; parameters: method as in PMID 33264017; conditions: used as denominator of target engagement ratio; read-out: IC50 for PARP inhibition; cited from earlier work
# [5] = system: P-glycoprotein (P-gp); parameters: method as in PMID 32652442, PMID 39575553; conditions: cited from earlier work
# [6] = system: ABCG2; parameters: method as in PMID 32652442, PMID 39575553; conditions: cited from earlier work
# [7] = cited from earlier work
# [8] = human liver microsomes; cited from earlier work
# [9] = Population PK model of total and unbound pamiparib plasma concentrations in glioblastoma patients (Monolix; bootstrap evaluation); type: in vivo, human; parameters: Ka_SD: unit not given here; conditions: for fraction unbound: oral, 60 mg, read-out: θ4 (Fu); for IIV of CL/F / IIV of Ka / IIV of V/F: (% RSE)
# Description: The total and unbound pamiparib plasma concentration data used in the population PK analysis were obtained from a phase 0/II study (ClinicalTrials.gov ID: NCT04614909), which enrolled 41 patients with newly diagnosed or recurrent glioblastoma. The protocols were approved by the Institutional Review Board of the Barrow Neurological Institute. Written informed consent was obtained from all participants.
# The patients received oral pamiparib (60 mg twice daily) for three days before undergoing surgical tumor resection. Blood samples were collected at predose and at 0.5, 1, 2, 4, 7, and 24 h following the 9th oral dose. Plasma was separated from whole blood by centrifugation at 1000× g and 4 °C for 10 min and then stored at −80 °C until analysis. The total and unbound pamiparib concentrations in plasma samples were quantified using a validated liquid chromatography coupled with tandem mass spectrometry (LC-MS/MS) method.
# The population PK model was developed in two steps: (1) basic (structural) model development and (2) covariate model development. All analyses were performed using the nonlinear mixed-effects modeling program MONOLIX version 2024R1 (Lixoft, Antony, France).
# The structural model was developed to simultaneously characterize total and unbound pamiparib plasma concentration–time profiles following an oral administration of 9 doses (60 mg, twice daily) in individual glioblastoma patients. A one-compartment model with first-order absorption (without lag time) and first-order elimination was selected to describe the multiple-dose plasma concentration–time data. The primary PK parameters included apparent oral clearance (CL/F), apparent volume of distribution (V/F), absorption rate constant (Ka), and fraction of unbound drug in plasma (Fu). The relationship between total (Cp) and unbound (Cu) drug concentrations was incorporated into the model using the equation Cu = Cp × Fu. All concentration data were log-transformed to stabilize variance and improve model fitting. Population mean PK parameters, interindividual variability, and residual error were assessed in the population PK model. Interindividual variability was modeled using an exponential function, assuming log-normal distribution for all PK parameters.
# Various residual error models, including constant, proportional, and combined error models, were evaluated. The combined model, incorporating both proportional and additive error components, was selected as the optimal error model (Equation (1)).(1) yi,j=fti,j,ψi+g(ti,j,ψi,ξ)εi,j Here, ψi is the parameter vector of the structural model f for individual i , and the residual error model is defined by the function g that depends on an additional parameter vector ξ . The residual errors εi,j are standardized Gaussian random variables with a mean of 0 and a standard deviation of 1. In this analysis, the combined error model was defined as g=a+bf^c , where the function g consists of a constant term, a, and a term proportional to the structural model f , with b as the proportionality constant. The parameter vector ξ includes a and b, while c is fixed at 1 by default.
# Population mean PK parameters were estimated using the Stochastic Approximation Expectation–Maximization (SAEM) algorithm, a robust method for handling complex nonlinear mixed-effects models. Individual patients’ PK parameter estimates were obtained through post hoc Bayesian estimation, utilizing the conditional distributions derived from the Markov Chain Monte Carlo (MCMC) procedure.
# The covariate model was developed using a stepwise approach to systematically identify and incorporate significant covariate effects. Initial screening for potential covariates was conducted using generalized additive modeling (GAM) with R version 4.4.1. The candidate covariates, listed in Table 1, were evaluated based on their relationship with Bayesian-estimated individual pharmacokinetic (PK) parameters from the structural model, including CL/F, V/F, Ka, and Fu. […]
# [10] = cited from earlier work; remark: listed apart in the source
# [11] = total pamiparib, base model, 60 mg twice daily oral
# [12] = total pamiparib, base model, population mean (% RSE)
# [13] = total pamiparib, bootstrap mean
# [14] = total pamiparib, final covariate model
# [15] = total pamiparib, final covariate model, population mean
# [16] = total pamiparib, final covariate model, population mean (% RSE in Table 2)
# [17] = unbound pamiparib, base model, population mean (% RSE)
# [18] = unbound pamiparib, bootstrap mean
# [19] = unbound pamiparib, final covariate model
# [20] = unbound pamiparib, final covariate model, population mean
# [21] = unbound pamiparib, final covariate model, population mean (% RSE in Table 2)
molecule,measurement,setting,value
Cn1ncnc1[C@H]1c2n[nH]c(=O)c3cc(F)cc(c23)N[C@@H]1c1ccc(F)cc1 [talazoparib],PARP trapping potency relative to olaparib,[1],~ 100 fold
oxy-dehydro pamiparib [M3],metabolite abundance,"[2]; human plasma, urine, and feces",most abundant metabolite
O=C(c1cc(Cc2n[nH]c(=O)c3ccccc23)ccc1F)N1CCN(C(=O)C2CC2)CC1 [olaparib],dose for complete target engagement,[3]; ~5-fold of ED50,15 mg/kg
same,dose for 50% target engagement (ED50),[3],3.17 mg/kg
C[C@]12CCCN1CC1=NNC(=O)c3cc(F)cc4[nH]c2c1c34 [pamiparib],IC50,[4],~1 nM and 1 nM
same,substrate of P-glycoprotein (P-gp) / ABCB1,[5],not a substrate
same,substrate of efflux transporter ABCG2,[6],not a substrate
same,LogP,[7],2.03
same,"fecal excretion, share of total radioactivity",[2]; pamiparib and its metabolites,~27%
same,"renal excretion, share of total radioactivity",[2]; pamiparib and its metabolites,approximately 58%
same,unchanged pamiparib as share of total radioactivity in plasma,[2]; patients with solid tumors,67%
same,intrinsic clearance,[8],low
same,fraction unbound,"[9]; human, plasma, total pamiparib, base model, population mean (% RSE)",0.042
same,fraction unbound,"[9]; human, plasma, total pamiparib, bootstrap mean",0.041
same,fraction unbound,"[9]; human, plasma, total pamiparib, final covariate model, population mean (% RSE in Table 2)",0.041
same,fraction unbound,"[9]; human, plasma, unbound pamiparib, base model, population mean (% RSE)",0.042
same,fraction unbound,"[9]; human, plasma, unbound pamiparib, bootstrap mean",0.041
same,fraction unbound,"[9]; human, plasma, unbound pamiparib, final covariate model, population mean (% RSE in Table 2)",0.042
same,half-life,"[9]; human, plasma, glioblastoma patients, 60 mg twice daily oral, read-out: population mean elimination half-life (T1/2) (converted)",~12 h
same,TV_CL/F,[9]; [11],2.73 L/h
same,TV_V/F,[9]; [11],44 L
same,TV_KA,"[9]; total pamiparib, base model, 60 mg twice daily oral, glioblastoma patients",1.64 h⁻¹
same,IIV of CL/F,"[9]; total pamiparib, base model",53 (11) %
same,IIV of Ka,"[9]; total pamiparib, base model",397 (18) %
same,IIV of V/F,"[9]; total pamiparib, base model",53 (16) %
same,TV_Fu,"[9]; total pamiparib, base model, fraction unbound in plasma",0.042
same,θ1 (Ka),[9]; [12],1.64 (42) h^−1
same,θ2 (V/F),[9]; [12],44 (9.7) L
same,θ3 (CL/F),[9]; [12],2.73 (8.0) L/h
same,Fu_SD,[9]; [13],0.11
same,Ka_SD,[9]; [13],1.6
same,V/F_SD,[9]; [13],0.35
same,β1 (PCC),[9]; [13],0.0089
same,β2 (Age),[9]; [13],−0.017
same,θ2 (V/F),[9]; [13],17 L
same,θ1 (Ka),"[9]; total pamiparib, bootstrap mean (500 replicates)",1.71 h⁻¹
same,TV_KA,"[9]; total pamiparib, final covariate model, 60 mg twice daily oral",1.58 h⁻¹
same,IIV of CL/F,[9]; [14],50% and 50 (11) %
same,IIV of Ka,[9]; [14],410 (20) %
same,IIV of V/F,[9]; [14],41 (17) %
same,TV_V/F,"[9]; total pamiparib, final covariate model, at median PCC 111.5",44 L and 44 ^† L
same,TV_CL/F,"[9]; total pamiparib, final covariate model, at median age 60",2.59 L/h and 2.59 ^‡ L/h
same,TV_Fu,"[9]; total pamiparib, final covariate model, fraction unbound in plasma",0.041
same,Fu_SD,[9]; [15],0.12
same,Ka_SD,[9]; [15],1.7
same,V/F_SD,[9]; [15],0.39
same,θ1 (Ka),[9]; [16],1.58 (42) h^−1 and 1.58 h^−1
same,θ2 (V/F),[9]; [16],15 (28) L and 15 L
same,TV_CL/F,"[9]; unbound pamiparib, base model",65.0 L/h
same,TV_Fu,"[9]; unbound pamiparib, base model",0.042
same,TV_V/F,"[9]; unbound pamiparib, base model",1017 L
same,TV_KA,"[9]; unbound pamiparib, base model, 60 mg twice daily oral",1.55 h⁻¹
same,IIV of CL/F,"[9]; unbound pamiparib, base model",54 (11) %
same,IIV of Ka,"[9]; unbound pamiparib, base model",612 (21) %
same,IIV of V/F,"[9]; unbound pamiparib, base model",50 (17) %
same,θ1 (Ka),[9]; [17],1.55 (51) h^−1
same,θ2 (V/F),[9]; [17],1017 (9.1) L
same,θ3 (CL/F),[9]; [17],65.0 (8.2) L/h
same,Fu_SD,[9]; [18],0.11
same,Ka_SD,[9]; [18],1.66
same,V/F_SD,[9]; [18],0.35
same,β1 (PCC),[9]; [18],0.0083
same,β2 (Age),[9]; [18],−0.016
same,θ2 (V/F),[9]; [18],441 L
same,θ1 (Ka),"[9]; unbound pamiparib, bootstrap mean (500 replicates)",1.86 h⁻¹
same,TV_Fu,[9]; [19],0.042
same,TV_KA,[9]; [19],1.7 h⁻¹
same,IIV of CL/F,[9]; [19],52(11) %
same,IIV of Ka,[9]; [19],380 (20) %
same,IIV of V/F,[9]; [19],41 (19) %
same,TV_V/F,"[9]; unbound pamiparib, final covariate model, at median PCC 111.5",1060 ^† L
same,TV_CL/F,"[9]; unbound pamiparib, final covariate model, at median age 60",62.5 ^‡ L/h
same,Fu_SD,[9]; [20],0.11
same,Ka_SD,[9]; [20],1.66
same,V/F_SD,[9]; [20],0.39
same,θ1 (Ka),[9]; [21],1.7 (44) h^−1 and 1.7 h^−1
same,θ2 (V/F),[9]; [21],402 (28) L and 402 L
same,PARP trapping potency,[1]; compared with other PARP inhibitors,surpassing olaparib and rucaparib but slightly weaker than niraparib and much weaker than talazoparib
same,maximum tolerated dose in monotherapy,[10],60 mg BID
same,T1/2,[10]; first in-human study BGB-290-AU-002,13 h

# — PMC12030534, “Population Pharmacokinetic Modeling of Total and Unbound Pamiparib in Glioblastoma Patients: Insights into Drug Disposition and Dosing Optimization” (Pharmaceutics, 2025)
